In patent publication US20150080337A1, “N-CYCLOALKYL-N-[(TRISUBSTITUTEDSILYLPHENYL)METHYLENE]-(THIO)CARBOXAMIDE DERIVATIVES” (BAYER CROPSCIENCE, priority 2012, published 2015):

Columns and labels:
[1] = log P by HPLC on reversed-phase column (C 18), EEC Directive 79/831 Annex V.A8; type: physicochemical; conditions: HPLC C 18, 40° C., 0.1% aqueous formic acid and acetonitrile, gradient 10% to 90% acetonitrile
Procedure: In table 1, the log P values were determined in accordance with EEC Directive 79/831 Annex V.A8 by HPLC (High Performance Liquid Chromatography) on a reversed-phase column (C 18), using the method described below:
Temperature: 40° C.; Mobile phases: 0.1% aqueous formic acid and acetonitrile; linear gradient from 10% acetonitrile to 90% acetonitrile.
Calibration was carried out using unbranched alkan-2-ones (comprising 3 to 16 carbon atoms) with known log P values (determination of the log P values by the retention times using linear interpolation between two successive alkanones). lambda-max-values were determined using UV-spectra from 200 nm to 400 nm and the peak values of the chromatographic signals.
In table 2, M+H (Apcl+) and log P are defined as for table 1.

[2] = tested on: Sphaerotheca fuliginea; assay: In vivo test on Sphaerotheca fuliginea (cucurbits powdery mildew); conditions: 500 ppm of active ingredient; gherkin plants sprayed 24 hours before contamination; grading 12 days after contamination vs control plants
Procedure: The active ingredients tested are prepared by homogenization in a mixture of acetone/tween/DMSO and then diluted with water to obtain the desired active material concentration.
Gherkin plants (“Vert petit de Paris” variety), sown in starter cups on a 50/50 peat soil-pozzolana substrate and grown at 24° C., are treated at the Z11 cotyledon stage by spraying with the active ingredient prepared as described above. Plants, used as controls, are treated with the mixture of acetone/tween/DMSO/water not containing the active material.
After 24 hours, the plants are contaminated by spraying the cotyledons with an aqueous suspension of Sphaerotheca fuliginea spores (100 000 spores per mL). The spores are collected from infected plants. The contaminated gherkin plants are incubated at about 20° C. and at 70-80% relative humidity.
(§1) Grading (% of efficacy) is carried out 12 days after the contamination, in comparison with the control plants.
Under these conditions, good (at least 70%) to total protection is observed at a dose of 500 ppm of active ingredient with the following compounds from table A: […]

[3] = tested on: Puccinia recondita; assay: In vivo test on Puccinia recondita (brown rust); conditions: 500 ppm of active ingredient; wheat plants sprayed 24 hours before contamination; grading 12 days after contamination vs control plants
Procedure: (§2) The active ingredients tested are prepared by homogenization in a mixture of acetone/tween/DMSO, and then diluted with water to obtain the desired active material concentration.
(§3) Wheat plants (“Scipion” variety), sown in starter cups on a 50/50 peat soil pozzolana substrate and grown at 22° C., are treated at the 1 leaf stage (10 cm height) by spraying with the active ingredient prepared as described above. Plants, used as controls, are treated with the mixture of acetone/tween/DMSO/water not containing the active material.
(§4) After 24 hours, the plants are contaminated by spraying the leaves with an aqueous suspension of Puccinia recondita spores (100 000 spores per mL). The spores are collected from an infected plant and are suspended in water containing 2.5 mL/L of Tween 80 at 10%. The contaminated wheat plants are incubated for 24 hours at 20° C. and at 100% relative humidity, and then for 10 days at 20° C. and at 70-80% relative humidity.
as §1
Under these conditions, good (at least 70%) to excellent (at least 90%) protection is observed at a dose of 500 ppm of active ingredient with the following compounds from table C: […]

[4] = tested on: Septoria tritici; assay: In vivo preventive test on Septoria tritici (wheat); conditions: 500 ppm of active ingredient; wheat plants sprayed 24 hours before contamination; grading 24 days after contamination vs control plants
Procedure: as §2, §3
After 24 hours, the plants are contaminated by spraying the leaves with an aqueous suspension of cryopreserved Septoria tritici spores (500 000 spores per mL). The contaminated wheat plants are incubated for 72 hours at 18° C. and at 100% relative humidity, and then for 21 days at 90% relative humidity.
Grading (% of efficacy) is carried out 24 days after the contamination, in comparison with the control plants.
Under these conditions, good (at least 70%) to total protection is observed at a dose of 500 ppm of active ingredient with the following compounds from table F: […]

[5] = tested on: Uromyces appendiculatus; assay: In vivo preventive test on Uromyces appendiculatus (bean rust); conditions: 500 ppm of active ingredient; bean plants sprayed 24 hours before contamination; grading 11 days after contamination vs control plants
Procedure: as §2
Bean plants (“Saxa” variety), sown in starter cups on a 50/50 peat soil pozzolana substrate and grown at 24° C., are treated at the 2 leaf stage (9 cm height) by spraying with the active ingredient prepared as described above. Plants, used as controls, are treated with the mixture of acetone/tween/DMSO/water not containing the active material.
as §4, with “of Uromyces appendiculatus” for “of Puccinia recondita”, “spores (150” for “spores (100”, “from” for “from an”, “infected plants” for “infected plant”, “contaminated bean” for “contaminated wheat”
Grading (% of efficacy) is carried out 11 days after the contamination, in comparison with the control plants.
Under these conditions, good (at least 70%) to total protection is observed at a dose of 500 ppm of active ingredient with the following compounds from table G: […]

[6] = Table 1, compounds of formula (I)
[7] = Table 2, compounds of formula (II)

Cc1nn(C)c(F)c1C(=O)N(Cc1ccccc1[Si](C)(C)c1ccccc1)C1CC1 [I.1, N-cyclopropyl-N-{2-[dimethyl(phenyl)silyl]benzyl}-5-fluoro-1,3-dimethyl-1H-pyrazole-4-carboxamide]
chromatographic logP [1, 6]: 4.24 | Efficacy [2]: 100% | Efficacy [3]: 92% | Efficacy [4]: 96% | Efficacy [5]: 93%

CCc1nn(C)c(F)c1C(=O)N(Cc1ccccc1[Si](C)(C)c1ccccc1)C1CC1 [I.2]
logP [1, 6]: 4.81 | Efficacy [2]: 100% | Efficacy [3]: 83%

Cn1cc(C(=O)N(Cc2ccccc2[Si](C)(C)c2ccccc2)C2CC2)c(C(F)F)n1 [I.3]
logP [1, 6]: 4.41 | Efficacy [2]: 93% | Efficacy [3]: 83% | Efficacy [4]: 80% | Efficacy [5]: 93%

Cn1nc(C(F)F)c(C(=O)N(Cc2ccccc2[Si](C)(C)c2ccccc2)C2CC2)c1F [I.4]
logP [1, 6]: 4.78 | Efficacy [2]: 100% | Efficacy [3]: 92% | Efficacy [4]: 100% | Efficacy [5]: 100%

Cn1nc(C(F)F)c(C(=O)N(Cc2ccccc2[Si](C)(C)c2ccccc2)C2CC2)c1Cl [I.5]
logP [1, 6]: 4.88 | Efficacy [2]: 79% | Efficacy [3]: 83%

Cn1nc(C(F)F)c(C(=O)N(Cc2ccccc2[Si](C)(C)c2ccc(Cl)cc2)C2CC2)c1F [I.6]
logP [1, 6]: 5.19 | Efficacy [2]: 100% | Efficacy [3]: 94% | Efficacy [5]: 100%

Cn1cc(C(=O)N(Cc2ccccc2[Si](C)(C)c2ccc(Cl)cc2)C2CC2)c(C(F)F)n1 [I.7]
logP [1, 6]: 4.81 | Efficacy [2]: 70% | Efficacy [3]: 78% | Efficacy [5]: 86%

Cc1cc(C(=O)N(Cc2ccccc2[Si](C)(C)c2ccc(Cl)cc2)C2CC2)c(C)o1 [I.9]
logP [1, 6]: 5.78

Cn1cc(C(=O)N(Cc2ccccc2[Si](C)(C)c2ccc(Cl)cc2)C2CC2)c(C(F)F)c1 [I.10]
logP [1, 6]: 5.19

C[Si](C)(c1ccc(Cl)cc1)c1ccccc1CN(C(=O)c1ccsc1I)C1CC1 [I.11]
logP [1, 6]: 5.81

Cc1nc(C(F)F)c(C(=O)N(Cc2ccccc2[Si](C)(C)c2ccc(Cl)cc2)C2CC2)s1 [I.12]
logP [1, 6]: 5.31

Cn1nc(C(F)F)c(C(=O)N(Cc2ccccc2[Si](C)(C)c2ccc(-c3ccccc3)cc2)C2CC2)c1F [I.13]
logP [1, 6]: 5.71

Cn1cc(C(=O)N(Cc2ccccc2[Si](C)(C)c2ccc(-c3ccccc3)cc2)C2CC2)c(C(F)F)n1 [I.14]
logP [1, 6]: 5.36

Cc1cc(C(=O)N(Cc2ccccc2[Si](C)(C)c2ccc(-c3ccccc3)cc2)C2CC2)c(C)o1 [I.15]
logP [1, 6]: 6.39

C[Si](C)(c1ccc(-c2ccccc2)cc1)c1ccccc1CN(C(=O)c1ccsc1I)C1CC1 [I.16]
logP [1, 6]: 6.39

Cc1nc(C(F)F)c(C(=O)N(Cc2ccccc2[Si](C)(C)c2ccc(-c3ccccc3)cc2)C2CC2)s1 [I.17]
logP [1, 6]: 5.93

Cn1cc(C(=O)N(Cc2ccccc2[Si](C)(C)c2ccc(-c3ccccc3)cc2)C2CC2)c(C(F)F)c1 [I.18]
logP [1, 6]: 5.68

Cc1cc(C(=O)N(Cc2ccccc2[Si](C)(C)c2ccc(Oc3ccccc3)cc2)C2CC2)c(C)o1 [I.21]
logP [1, 6]: 6.33

C[Si](C)(c1ccc(Oc2ccccc2)cc1)c1ccccc1CN(C(=O)c1ccsc1I)C1CC1 [I.22]
logP [1, 6]: 6.36

Cn1cc(C(=O)N(Cc2ccccc2[Si](C)(C)c2ccc(Oc3ccccc3)cc2)C2CC2)c(C(F)F)c1 [I.23]
logP [1, 6]: 5.62

Cc1nc(C(F)F)c(C(=O)N(Cc2ccccc2[Si](C)(C)c2ccc(Oc3ccccc3)cc2)C2CC2)s1 [I.24]
logP [1, 6]: 5.81

Cn1cc(C(=O)N(Cc2ccccc2[Si](C)(C)c2cccc3ccccc23)C2CC2)c(C(F)F)n1 [I.26]
logP [1, 6]: 4.83

Cc1cc(C(=O)N(Cc2ccccc2[Si](C)(C)c2cccc3ccccc23)C2CC2)c(C)o1 [I.27]
logP [1, 6]: 5.87

Cn1cc(C(=O)N(Cc2ccccc2[Si](C)(C)c2cccc3ccccc23)C2CC2)c(C(F)F)c1 [I.28]
logP [1, 6]: 5.19

Cc1nc(C(F)F)c(C(=O)N(Cc2ccccc2[Si](C)(C)c2cccc3ccccc23)C2CC2)s1 [I.30]
logP [1, 6]: 5.31

Cn1nc(C(F)F)c(C(=O)N(Cc2ccccc2[Si](C)(C)c2cccs2)C2CC2)c1Cl [I.32]
logP [1, 6]: 4.72 | Efficacy [5]: 71%

Cn1nc(C(F)F)c(C(=O)N(Cc2ccccc2[Si](C)(C)c2cccs2)C2CC2)c1F [I.33]
logP [1, 6]: 4.61 | Efficacy [2]: 100% | Efficacy [4]: 100% | Efficacy [5]: 100%

C[Si](C)(c1cccs1)c1ccccc1CN(C(=O)c1ccsc1I)C1CC1 [I.34]
logP [1, 6]: 5.28

Cc1cc(C(=O)N(Cc2ccccc2[Si](C)(C)c2cccs2)C2CC2)c(C)o1 [I.35]
logP [1, 6]: 5.19

Cc1nc(C(F)F)c(C(=O)N(Cc2ccccc2[Si](C)(C)c2cccs2)C2CC2)s1 [I.36]
logP [1, 6]: 4.74

Cn1cc(C(=O)N(Cc2ccccc2[Si](C)(C)c2cccs2)C2CC2)c(C(F)F)c1 [I.37]
logP [1, 6]: 4.59

COc1ccc([Si](C)(C)c2ccccc2CN(C(=O)c2c(C(F)F)nn(C)c2F)C2CC2)cn1 [I.38]
logP [1, 6]: 4.13

COc1ccc([Si](C)(C)c2ccccc2CN(C(=O)c2c(C(F)F)nn(C)c2Cl)C2CC2)cn1 [I.39]
logP [1, 6]: 4.25

C[Si](C)(c1ccccc1)c1ccccc1CNC1CC1 [II.1, N-{2-[dimethyl(phenyl)silyl]benzyl}cyclopropanamine]
chromatographic logP [1, 7]: 1.95

C[Si](C)(c1ccc(Cl)cc1)c1ccccc1CNC1CC1 [II.2, N-{2-[(4-chlorophenyl)(dimethyl)silyl]benzyl}cyclopropanamine]
chromatographic logP [1, 7]: 2.07

C[Si](C)(c1ccc(-c2ccccc2)cc1)c1ccccc1CNC1CC1 [II.3, N-{2-[biphenyl-4-yl(dimethyl)silyl]benzyl}cyclopropanamine]
chromatographic logP [1, 7]: 2.39

C[Si](C)(c1ccc(Oc2ccccc2)cc1)c1ccccc1CNC1CC1 [II.4, N-{2-[dimethyl(4-phenoxyphenyl)silyl]benzyl}cyclopropanamine]
chromatographic logP [1, 7]: 2.42

C[Si](C)(c1ccccc1CNC1CC1)c1cccc2ccccc12 [II.5, N-{2-[dimethyl(1-naphthyl)silyl]benzyl}cyclopropanamine]
chromatographic logP [1, 7]: 2.11

C[Si](C)(c1cccs1)c1ccccc1CNC1CC1 [II.6, N-{2-[dimethyl(2-thienyl)silyl]benzyl}cyclopropanamine]
chromatographic logP [1, 7]: 1.76

CC1CC1NCc1ccccc1[Si](C)(C)c1ccccc1 (stereo not shown) [II.7]
logP [1, 7]: 2.70

COc1ccc([Si](C)(C)c2ccccc2CNC2CC2)cn1 [II.8, N-{2-[(6-methoxypyridin-3-yl)(dimethyl)silyl]benzyl}cyclopropanamine]
chromatographic logP [1, 7]: 1.86
